Test results from ChEMBL document CHEMBL1144369, “2-Ethoxybenzoxazole as a bioisosteric replacement of an ethyl benzoate group in a human rhinovirus (HRV) capsid binder” (Bioorg Med Chem Lett, 2005).
Values after ≈ are worked out from the molar mass of the structure shown.

Columns and labels:
Human rhinovirus sp. [1] = assay: Effective concentration against HRV-2; format: functional, organism-based
Human rhinovirus sp. [2] = assay: Effective concentration against HRV-14; format: functional, organism-based
Human rhinovirus sp. [3] = assay: Median effective concentration against HRV serotypes; Number of serotypes 16; format: functional, organism-based
Human rhinovirus sp. [4] = assay: Effective concentration against HRV serotype 85 (assay was run at least six times); format: functional, organism-based
Human rhinovirus sp. [5] = assay: Effective concentration against HRV serotype 70 (assay was run at least six times); format: functional, organism-based
Human rhinovirus sp. [6] = assay: Effective concentration against HRV serotype 45 (assay was run for 3 times); format: functional, organism-based
Human rhinovirus sp. [7] = assay: Effective concentration against HRV serotype 9 (assay was run at least six times); format: functional, organism-based
Human rhinovirus sp. [8] = assay: Effective concentration against HRV serotype 59 (assay was run at least six times); format: functional, organism-based
Human rhinovirus sp. [9] = assay: Effective concentration against HRV serotype 89 (assay was run at least six times); format: functional, organism-based
Human rhinovirus sp. [10] = assay: Effective concentration against HRV serotype 16 (assay was run at least six times); format: functional, organism-based
Human rhinovirus sp. [11] = assay: Effective concentration against HRV serotype 39 (assay was run at least six times); format: functional, organism-based
Human rhinovirus sp. [12] = assay: Effective concentration against HRV serotype 72 (assay was run at least six times); format: functional, organism-based
Human rhinovirus sp. [13] = assay: Effective concentration against HRV serotype 51 (assay was run at least six times); format: functional, organism-based
Human rhinovirus sp. [14] = assay: Effective concentration against HRV serotype 29 (assay was run at least six times); format: functional, organism-based
Human rhinovirus sp. [15] = assay: Effective concentration against HRV serotype 63 (assay was run at least six times); format: functional, organism-based
Human rhinovirus sp. [16] = assay: Effective concentration against HRV serotype 15 (assay was run at least six times); format: functional, organism-based
Human rhinovirus sp. [17] = assay: Effective concentration against HRV serotype 2 (assay was run at least six times); format: functional, organism-based
Human rhinovirus sp. [18] = assay: Effective concentration against HRV serotype 14 (assay was run at least six times); format: functional, organism-based
Human rhinovirus sp. [19] = assay: Effective concentration against HRV serotype 86 (assay was run at least six times); format: functional, organism-based
Human rhinovirus sp. [20] = assay: Effective concentration against HRV-16; format: functional, organism-based
Human rhinovirus sp. [21] = assay: Percent inhibition of HRV strains at a concentration of 0.064 ug/mL; no. of strains=100; format: functional
Human rhinovirus sp. [22] = assay: Effective concentration against HRV serotype 45 (assay was run at least six times); format: functional, organism-based

CCOc1nc2ccc(OCCC3CCN(c4ccc(C)nn4)CC3)cc2s1
EC50 (Human rhinovirus sp. [1]): 0.104 µg/mL (≈ 0.261 µM)
EC50 (Human rhinovirus sp. [2]): 0.014 µg/mL (≈ 0.0351 µM)

CCSc1nc2ccc(OCCC3CCN(c4ccc(C)nn4)CC3)cc2s1
EC50 (Human rhinovirus sp. [1]): 0.165 µg/mL (≈ 0.398 µM)
EC50 (Human rhinovirus sp. [2]): 0.049 µg/mL (≈ 0.118 µM)

CCSc1nc2cc(OCCC3CCN(c4ccc(C)nn4)CC3)ccc2n1C
EC50 (Human rhinovirus sp. [1]): 0.102 µg/mL (≈ 0.248 µM)
EC50 (Human rhinovirus sp. [2]): 0.169 µg/mL (≈ 0.411 µM)

Cc1ccc(N2CCC(CCOc3ccc4nc(C)oc4c3)CC2)nn1
EC50 (Human rhinovirus sp. [1]): > 0.5 µg/mL
EC50 (Human rhinovirus sp. [2]): > 0.5 µg/mL

CSc1nc2cc(OCCC3CCN(c4ccc(C)nn4)CC3)ccc2o1
EC50 (Human rhinovirus sp. [1]): 0.099 µg/mL (≈ 0.257 µM)
EC50 (Human rhinovirus sp. [2]): 0.047 µg/mL (≈ 0.122 µM)

CCOc1nc2cc(OCCC3CCN(c4ccc(C)nn4)CC3)ccc2s1
EC50 (Human rhinovirus sp. [1]): 0.007 µg/mL (≈ 0.0176 µM)
EC50 (Human rhinovirus sp. [2]): 0.006 µg/mL (≈ 0.0151 µM)

Cc1ccc(N2CCC(CCOc3ccc4oc(C)nc4c3)CC2)nn1
EC50 (Human rhinovirus sp. [1]): > 0.5 µg/mL
EC50 (Human rhinovirus sp. [2]): > 0.5 µg/mL

CCCCc1nc2cc(OCCC3CCN(c4ccc(C)nn4)CC3)ccc2o1
EC50 (Human rhinovirus sp. [1]): 0.013 µg/mL (≈ 0.033 µM)
EC50 (Human rhinovirus sp. [2]): 0.082 µg/mL (≈ 0.208 µM)

CCCOc1nc2cc(OCCC3CCN(c4ccc(C)nn4)CC3)ccc2o1
EC50 (Human rhinovirus sp. [1]): 0.002 µg/mL (≈ 0.00504 µM)
EC50 (Human rhinovirus sp. [2]): 0.02 µg/mL (≈ 0.0504 µM)

CCc1nc2cc(OCCC3CCN(c4ccc(C)nn4)CC3)ccc2o1
EC50 (Human rhinovirus sp. [1]): 0.144 µg/mL (≈ 0.393 µM)
EC50 (Human rhinovirus sp. [2]): 0.13 µg/mL (≈ 0.355 µM)

CCSc1nc2ccc(OCCC3CCN(c4ccc(C)nn4)CC3)cc2o1
EC50 (Human rhinovirus sp. [1]): 0.004 µg/mL (≈ 0.01 µM)
EC50 (Human rhinovirus sp. [2]): 0.05 µg/mL (≈ 0.125 µM)

COc1nc2cc(OCCC3CCN(c4ccc(C)nn4)CC3)ccc2o1
EC50 (Human rhinovirus sp. [1]): 0.159 µg/mL (≈ 0.432 µM)
EC50 (Human rhinovirus sp. [2]): 0.099 µg/mL (≈ 0.269 µM)

CCSc1nc2cc(OCCC3CCN(c4ccc(C)nn4)CC3)ccc2o1
EC50 (Human rhinovirus sp. [1]): 0.002 µg/mL (≈ 0.00502 µM)
EC50 (Human rhinovirus sp. [2]): 0.006 µg/mL (≈ 0.0151 µM)

CCCOc1nc2ccc(OCCC3CCN(c4ccc(C)nn4)CC3)cc2s1
EC50 (Human rhinovirus sp. [1]): 0.166 µg/mL (≈ 0.402 µM)
EC50 (Human rhinovirus sp. [2]): 0.041 µg/mL (≈ 0.0994 µM)

CCCc1nc2cc(OCCC3CCN(c4ccc(C)nn4)CC3)ccc2o1
EC50 (Human rhinovirus sp. [1]): 0.075 µg/mL (≈ 0.197 µM)
EC50 (Human rhinovirus sp. [2]): 0.028 µg/mL (≈ 0.0736 µM)

CCOc1nc2cc(OCCC3CCN(c4ccc(C)nn4)CC3)ccc2o1
EC50 (Human rhinovirus sp. [1]): 0.003 µg/mL (≈ 0.00784 µM)
EC50 (Human rhinovirus sp. [3]): 3.88 ng/mL (≈ 0.0101 µM)
EC50 (Human rhinovirus sp. [4]): 0.78 ng/mL (≈ 0.00204 µM)
EC50 (Human rhinovirus sp. [5]): 0.0152 µg/mL (≈ 0.0398 µM)
EC50 (Human rhinovirus sp. [6]): > 0.25 µg/mL
EC50 (Human rhinovirus sp. [7]): 1.2 ng/mL (≈ 0.00314 µM)
EC50 (Human rhinovirus sp. [8]): 2.26 ng/mL (≈ 0.00591 µM)
EC50 (Human rhinovirus sp. [9]): 1.51 ng/mL (≈ 0.00395 µM)
EC50 (Human rhinovirus sp. [10]): 0.00772 µg/mL (≈ 0.0202 µM)
EC50 (Human rhinovirus sp. [11]): 0.53 ng/mL (≈ 0.00139 µM)
EC50 (Human rhinovirus sp. [12]): 0.142 µg/mL (≈ 0.372 µM)
EC50 (Human rhinovirus sp. [13]): 3.45 ng/mL (≈ 0.00902 µM)
EC50 (Human rhinovirus sp. [14]): 7.28 ng/mL (≈ 0.019 µM)
EC50 (Human rhinovirus sp. [15]): 0.3 ng/mL (≈ 0.000784 µM)
EC50 (Human rhinovirus sp. [2]): 0.007 µg/mL (≈ 0.0183 µM)
EC50 (Human rhinovirus sp. [16]): 4.33 ng/mL (≈ 0.0113 µM)
EC50 (Human rhinovirus sp. [17]): 1.16 ng/mL (≈ 0.00303 µM)
EC50 (Human rhinovirus sp. [18]): 4.32 ng/mL (≈ 0.0113 µM)
EC50 (Human rhinovirus sp. [19]): 8.74 ng/mL (≈ 0.0229 µM)

CCOc1nc2ccc(OCCC3CCN(c4ccc(C)nn4)CC3)cc2o1
EC50 (Human rhinovirus sp. [1]): 0.045 µg/mL (≈ 0.118 µM)
EC50 (Human rhinovirus sp. [20]): 0.023 µg/mL (≈ 0.0601 µM)

CCSc1nc2ccc(OCCC3CCN(c4ccc(C)nn4)CC3)cc2n1C
EC50 (Human rhinovirus sp. [1]): 0.086 µg/mL (≈ 0.209 µM)
EC50 (Human rhinovirus sp. [2]): > 0.25 µg/mL

CCOC(=O)c1ccc(OCCC2CCN(c3ccc(C)nn3)CC2)cc1 [PIRODAVIR]
EC50 (Human rhinovirus sp. [3]): 4.54 ng/mL (≈ 0.0123 µM)
EC50 (Human rhinovirus sp. [4]): 4.72 ng/mL (≈ 0.0128 µM)
EC50 (Human rhinovirus sp. [5]): 0.00214 µg/mL (≈ 0.00579 µM)
EC50 (Human rhinovirus sp. [7]): 2.05 ng/mL (≈ 0.00555 µM)
EC50 (Human rhinovirus sp. [8]): 4.37 ng/mL (≈ 0.0118 µM)
EC50 (Human rhinovirus sp. [9]): 5.7 ng/mL (≈ 0.0154 µM)
EC50 (Human rhinovirus sp. [10]): 0.0152 µg/mL (≈ 0.0412 µM)
EC50 (Human rhinovirus sp. [11]): 1.8 ng/mL (≈ 0.00487 µM)
EC50 (Human rhinovirus sp. [12]): 0.0348 µg/mL (≈ 0.0941 µM)
EC50 (Human rhinovirus sp. [13]): 5.21 ng/mL (≈ 0.0141 µM)
inhibition at 0.064 µg/mL (Human rhinovirus sp. [21]): 80%
EC50 (Human rhinovirus sp. [14]): 3.74 ng/mL (≈ 0.0101 µM)
EC50 (Human rhinovirus sp. [15]): 0.83 ng/mL (≈ 0.00225 µM)
EC50 (Human rhinovirus sp. [16]): 7.92 ng/mL (≈ 0.0214 µM)
EC50 (Human rhinovirus sp. [17]): 2.77 ng/mL (≈ 0.0075 µM)
EC50 (Human rhinovirus sp. [18]): 3.65 ng/mL (≈ 0.00988 µM)
EC50 (Human rhinovirus sp. [19]): 9.56 ng/mL (≈ 0.0259 µM)
EC50 (Human rhinovirus sp. [22]): > 5 µg/mL

Cc1cc(CCCOc2c(C)cc(-c3noc(C(F)(F)F)n3)cc2C)on1 [PLECONARIL]
EC50 (Human rhinovirus sp. [3]): 49.6 ng/mL (≈ 0.13 µM)
EC50 (Human rhinovirus sp. [4]): 34 ng/mL (≈ 0.0892 µM)
EC50 (Human rhinovirus sp. [5]): 0.0539 µg/mL (≈ 0.141 µM)
EC50 (Human rhinovirus sp. [7]): 37.2 ng/mL (≈ 0.0974 µM)
EC50 (Human rhinovirus sp. [8]): 387 ng/mL (≈ 1.02 µM)
EC50 (Human rhinovirus sp. [9]): 29.3 ng/mL (≈ 0.0769 µM)
EC50 (Human rhinovirus sp. [10]): 0.108 µg/mL (≈ 0.283 µM)
EC50 (Human rhinovirus sp. [11]): 44.9 ng/mL (≈ 0.118 µM)
EC50 (Human rhinovirus sp. [12]): 0.469 µg/mL (≈ 1.23 µM)
EC50 (Human rhinovirus sp. [13]): 30.4 ng/mL (≈ 0.0797 µM)
EC50 (Human rhinovirus sp. [14]): 45.4 ng/mL (≈ 0.119 µM)
EC50 (Human rhinovirus sp. [15]): 62.3 ng/mL (≈ 0.163 µM)
EC50 (Human rhinovirus sp. [16]): 69.8 ng/mL (≈ 0.183 µM)
EC50 (Human rhinovirus sp. [17]): 26.5 ng/mL (≈ 0.0694 µM)
EC50 (Human rhinovirus sp. [18]): 34.3 ng/mL (≈ 0.09 µM)
EC50 (Human rhinovirus sp. [19]): 70 ng/mL (≈ 0.184 µM)
EC50 (Human rhinovirus sp. [22]): 1.91 µg/mL (≈ 5 µM)
